Data published in US4446325A, “1,4-Dihydropyridine compounds” (priority 1981, dated 1984).

How the values were obtained:
[1] = background statement; cited from earlier work
blood pressure = assay: Blood pressure measured simultaneously with blood flow in anesthetized dog; format: in vivo; conditions: i.v.
Procedure: (§1) A dog was anesthetized with pentobarital sodium at a dose of 30 mg/kg (intravenous injection) and, under artificial respiration, the blood flow in the coronary, vertebral and femoral arteries was determined using an electromagnetic blood-flow meter. The blood pressure was also measured simultaneously. The test compound was dissolved in ethanol at a concentration of 1% by weight of the compound and then diluted to a volume of 10 times with a 80% aqueous solution of polyethylene glycol 400. The resulting solution was further diluted with a 0.9% physiological saline solution and administered intravenously into the femoral vein at a dose shown in Tables 1 and 2.

vertebral artery = assay: Blood flow increasing activity in vertebral artery of anesthetized dog (intravenous); format: in vivo; conditions: i.v.
Procedure: as §1

[2] = tested on: enucleated heart of guinea-pig; assay: Effect on heart systole, enucleated heart of guinea-pig (Langendorf method)
Procedure: (§2) The effects of the compounds of this invention on the heat systole and the perfusion volume in the coronary artery in enucleated heart of guinea-pig were determined in accordance with the Langendorf method.

coronary artery = assay: Blood flow increasing activity in coronary artery of anesthetized dog (intravenous); format: in vivo; conditions: i.v.
Procedure: as §1

[3] = background statement; cited from earlier work; remark: listed apart in the source
femoral artery = assay: Blood flow increasing activity in femoral artery of anesthetized dog (intravenous); format: in vivo; conditions: i.v.
Procedure: as §1

[4] = tested on: coronary artery in enucleated heart of guinea-pig; assay: Effect on perfusion volume in coronary artery, enucleated heart of guinea-pig (Langendorf method)
Procedure: as §2

[5] = 3 mg/kg, Table 2 (separate test)

For `COC(=O)C1=C(C)NC(C)=C(C(=O)OC)C1c1ccccc1[N+](=O)[O-]` [Compound H, Dimethyl 2,6-dimethyl-4-(2-nitrophenyl)-1,4-dihydropyridine-3,5-dicarboxylate, reference compound], the “duration of vasodilating activity” value [1] is given as “still unsatisfactory”, the “blood pressure lowering activity” value (blood pressure) is given as “found to have a blood pressure lowering activity” and the “Duration of Activity, Vertebral Artery” value (vertebral artery; 1 mg/kg, Table 1) is given as 8.0. The “Total Increase in Blood Flow, Vertebral Artery” value (vertebral artery; 1 mg/kg, Table 1) was 66 mL, the “Duration of Activity, Vertebral Artery” value (vertebral artery; 3 mg/kg, Table 1) was 16.0 and the “Total Increase in Blood Flow, Vertebral Artery” value (vertebral artery; 3 mg/kg, Table 1) was 190 mL. The “Duration of Activity, Vertebral Artery” value (vertebral artery; [5]) was 15, the “Total Increase in Blood Flow, Vertebral Artery” value (vertebral artery; [5]) was 131 mL and the “Duration of Activity, Vertebral Artery” value (vertebral artery; 10 mg/kg, Table 2) was 46. The “Total Increase in Blood Flow, Vertebral Artery” value (vertebral artery; 10 mg/kg, Table 2) was 640 mL, the “Effects on Heart Systole: Duration of Effect” value ([2]; dose 1 × 10^-6 g) was 14.5 min and the “Effects on Heart Systole: Duration of Effect” value ([2]; dose 1 × 10^-7 g) was 2.9 min. The “Duration of Activity, Coronary Artery” value (coronary artery; 1 mg/kg, Table 1) was 3.9, the “Total Increase in Blood Flow, Coronary Artery” value (coronary artery; 1 mg/kg, Table 1) was 30 mL and the “Duration of Activity, Coronary Artery” value (coronary artery; 3 mg/kg, Table 1) was 9.3. The “Total Increase in Blood Flow, Coronary Artery” value (coronary artery; 3 mg/kg, Table 1) was 107 mL, the “Duration of Activity, Coronary Artery” value (coronary artery; [5]) was 11 and the “Total Increase in Blood Flow, Coronary Artery” value (coronary artery; [5]) was 146 mL. For the same compound, the “Duration of Activity, Coronary Artery” value (coronary artery; 10 mg/kg, Table 2) was 40, the “Total Increase in Blood Flow, Coronary Artery” value (coronary artery; 10 mg/kg, Table 2) was 536 mL and the side-effects [3] was “still unsatisfactory”. The “Duration of Activity, Femoral Artery” value (femoral artery; 1 mg/kg, Table 1) was 6.0, the “Total Increase in Blood Flow, Femoral Artery” value (femoral artery; 1 mg/kg, Table 1) was 34 mL and the “Duration of Activity, Femoral Artery” value (femoral artery; 3 mg/kg, Table 1) was 21.5. For the same compound, the “Total Increase in Blood Flow, Femoral Artery” value (femoral artery; 3 mg/kg, Table 1) was 618 mL, the “Duration of Activity, Femoral Artery” value (femoral artery; [5]) was 12 and the “Total Increase in Blood Flow, Femoral Artery” value (femoral artery; [5]) was 119 mL. The “Duration of Activity, Femoral Artery” value (femoral artery; 10 mg/kg, Table 2) was 54, the “Total Increase in Blood Flow, Femoral Artery” value (femoral artery; 10 mg/kg, Table 2) was 825 mL and the “Effects on Coronary Artery: Duration of Effect” value ([4]; dose 1 × 10^-6 g) was 21.3 min. The “Effects on Coronary Artery: Total Perfusion Volume” value ([4]; dose 1 × 10^-6 g) was 192.8 drops, the “Effects on Coronary Artery: Duration of Effect” value ([4]; dose 1 × 10^-7 g) was 17.2 min and the “Effects on Coronary Artery: Total Perfusion Volume” value ([4]; dose 1 × 10^-7 g) was 91.2 drops.
